Measurements as given in PMC8852625, “A Computer-Aided Approach for the Discovery of D-Peptides as Inhibitors of SARS-CoV-2 Main Protease” (Frontiers in Molecular Biosciences, 2022).
Read-outs that look alike come from different tables or passages of the source.

Key:
[1] = tested on: SARS-CoV-2 3CL^pro
[2] = tested on: 3CL^pro; settings: in vivo; cited from earlier work

## ACE-HIE-HIE-PRO-TYR-NME [4P4]
[1]; 20 μM peptide, 500 nM 3CL^pro, 30 min pre-incubation, 50 µM DABCYL-KTSAVLQ↓SGFRKME-EDANS, 30 min, 37°C, 20 mM Tris pH 7.2, 200 mM NaCl, 1 mM EDTA, 1 mM TCEP, fluorescence 360/460 nm, mean, n = 3
  inhibition (loss) of 3CL^pro activity: more than 80%
[1]; 20 μM peptide, 500 nM 3CL^pro, 30 min pre-incubation, 50 µM fluorogenic substrate, 37°C, pH 7.2, mean, n = 3
  residual activity of 3CL^pro: below 20%

## ACE-HIE-ALA-PRO-TRP-NME [4P3]
[1]; pH 7.2
  inhibition (loss) of 3CL^pro activity: more than 80%
  inhibition of 3CL^pro (in words): most potent
  residual activity of 3CL^pro: below 20%

## CC(C)(C)[C@H](NC(=O)C(F)(F)F)C(=O)N1C[C@H]2[C@@H]([C@H]1C(=O)N[C@H](C#N)C[C@@H]1CCNC1=O)C2(C)C [PF-07321332]
[2]
  phase I clinical trial result: promising results
